In patent US11040087B2, “Therapeutic agent for diseases associated with abnormalities in dystroglycan sugar chain modification and method for assaying associated enzyme” (NATIONAL UNIVERSITY CORPORATION KOBE UNIVERSITY, priority 2016, dated 2021):

Columns and labels:
[1] = tested on: ISPD-deficient HAP1 cells; conditions: ISPD-deficient (KO) HAP1 cells; CDP-ribitol added to culture medium at final concentration 1 mM; culture 24 hours; western blot
Experimental: (§1) In this Example, for HAP1 cells and HEK cells, cells deficient in ISPD were generated using a CRISPR/CAS9 genome editing method. The HAP1 cells are a haploid cell line derived from cultured human leukemia cells (KBM7), and are cells capable of being subjected to genome editing with high efficiency.
(§2) The deficiency mutation of the ISPD-deficient cells was confirmed by DNA sequencing. To each culture medium, CDP-ribitol was added at a final concentration of 1 mM, followed by culture for 24 hours. After the culture, cell endogenous dystroglycan was prepared from a cell extract, and the state of glycosylation was confirmed by a western blot method.

ISPD-deficient HEK cells = conditions: ISPD-deficient (KO) HEK cells; CDP-ribitol 1 mM administered simultaneously with cell transfection reagent (lipofectamine); culture 24 hours; western blot
Experimental: as §1, §2

cytidine diphosphate ribitol [CDP-ribitol]
state of glycosylation of cell endogenous dystroglycan (α-DG) [1]: caused glycosylation of α-DG similar to that in the normal cells | state of glycosylation of cell endogenous dystroglycan (α-DG) (ISPD-deficient HEK cells): the restoration of the glycan was confirmed
